Data published in patent US6828450B2, “Triptycene analogs” (Kansas State University Research Foundation, priority 2000, dated 2004).
Where two headings read alike, the source gives them in different places. Each block holds one compound with its values, some of them ahead of it.

Experiments:
[1] = system: L1210 cells; test: L1210 tumor cell proliferation assay (Coulter counter); settings: for concentration giving almost total (maximal) inhibition of proliferation and viability: growth and viability; for IC50: read-out: IC50, inhibition of L1210 cell proliferation; for inhibition at 0.041 µM: read-out: % inhibition of L1210 cell proliferation
Procedure: (§1) FIG. 1. […] For tumor cell growth and viability, L1210 cells were respectively seeded in triplicate at initial densities of 1×10^4 and 1.11×10^4 cells/0.5 ml/well in RPMI 1640 medium containing 7.5% FCS and penicillin (100 IU/ml)-streptomycin (100 μg/ml), and grown for 4 days in the presence or absence (control) of 256 nM concentrations of the indicated compounds in a humidified incubator at 37° C. with 5% CO2 in air. Cell density was monitored using a Coulter counter. […] The ability of viable cells/0.5 ml to bioreduce 0.1 ml of MTS:PMS (20:1) reagent over a 3-h incubation period at 37° C. was assessed by measuring the absorbamce of the water-soluble formazan products at A490 nm.
FIG. 3. […] The protocol of the experiment was identical to that of FIG. 1. […] Drug concentrations are plotted on a logarithmic scale.
(§2) TT0 was purchased from Aldrich (Milwaukee, Wis.). All solutions of synthetic TTs and tricyclic pyrone H10, vincristine (VCR; a gift from Lilly Researeh Laboratories, Indianapolis, Ind.) and camptothecin (CPT; from Sigma Chemical Co., St Louis, Mo.) were dissolved and diluted in dimethyl sulfoxide (DMSO), whereas daunomycin (DAU) (from Sigma) solutions were prepared in 0.1 M potassium phosphate buffer, pH 7.4, containing 0.9% NaCl. Suspension cultures of murine L1210 lymphocytic leukemia cells (American Type Culture Collection, Rockville, Md.) were maintained in continuous exponential growth by twice-a-week passage in RPMI 1640 medium supplemented with 7.5% fortified bovine calf serum (FCS; HyClone Laboratories, Logan, Utah) and penicillin (100 IU/ml)-streptomycin (100 μg/ml), and incubated in the presence or absence of drugs at 37° C. in a humidified atmosphere containing 5% CO2. […] Control cells incubated in the absence of drugs were similarly treated with vehicle only and, in every experiment, all incubates received the same volume of solvent. For drug removal, incubates were spun at 200×g for 10 min, drug-containing supernatants were discarded, and intact cells were washed thrice with 1 ml of the above RPMI 1640 culture medium and resuspended in 0.5 ml of fresh medium for further incubation.
For tumor cell growth, L1210 cells were resuspended in fresh FCS-containing RPMI 1640 medium, plated at an initial density of 1×10^4 cells/0.5 ml, and incubated in 48-well Costar cell culture plates (Costar, Cambridge, Mass.). Except when otherwise specified, cells were grown for 4 days in the presence or absence of drugs and their density was monitored every 24 h using a Coulter counter (Coulter Electronics, Luton Beds, UK).

[2] = system: L1210 cells; test: cells; settings: for inhibitory effect on L1210 cell viability: 256 nM, 4 days; for cytotoxicity at 0.041 µM: read-out: % inhibition of L1210 cell viability
Procedure: as §1
FIG. 4. […] Cells were seeded in triplicate at initial densities of 100,000 or 11,100 cells/0.5 ml/well and respectively incubated for 2 or 4 days in the presence or absence (control) of the indicated concentrations of drugs, which are plotted on a logarithmic scale. The ability of viable cells/0.5 ml to bioreduce 0.1 ml of MTS:PMS (20:1) reagent over a 3-h incubation period was assessed as described in FIG. 1.
as §2
L1210, HL-60-S, HL60-RV and HL-60-R8 cells suspended in FCS-containing RPMI 1640 medium were grown in 48-well Costar cell culture plates for up to 4 days in the presence or absence of drugs to evaluate drug cytotoxicity.

[3] = system: HL-60-RV cells; test: HL-60-RV (MDR) cell proliferation assay; type: cell-based, human; settings: for IC50: read-out: IC50, inhibition of HL-60-RV cell proliferation
Source text: The MDR HL-60-RV and HL-60-R8 cells were developed in Melvin S. Center's laboratory (Kansas State University) and similarly maintained in RPMI 1640 medium in the absence of drugs (Marsh W, et al, Cancer Res 46: 4053-4057, 1986; McGrath T et al, and Center M S: Biochem Biophys Res Commun 145: 1171-1176, 1987; Marsh W and Center M S: Cancer Res 47: 5080-5086, 1987; McGrath T, et al, Biochem Pharmacol 38: 3611-3619, 1989; Marquardt D, et al, Cancer Res 50: 1426-1430, 1990; Marquardt D and Center M S: J Natl Cancer Inst 83: 1089-1109, 1991; Krishnamachary N and Center M S; Cancer Res 53: 3658-3661, 1993). Every 4 weeks, these HL-60-RV and HL-60-R8 sublines were exposed to 41 nM DAU for 48 h to stabilize their MDR phenotype. This concentration of DAU, which is not cytotoxic to MDR HL-60 sublines, was removed from the culture medium at least 48 h before experimentation. […] RFs were determined by dividing the IC50 of the MDR cells by that of the sensitive WT parent cell line.

[4] = read-out: IC50 (concentration inhibiting by 50% the viability of L1210 leukemic cells), day 4, Table 2 series
[5] = HL-60-RV and HL-60-R8 vs HL-60-S
[6] = HL-60-RV and HL-60-R8 vs HL-60-S, day 2
[7] = HL-60-RV and HL-60-R8 vs HL-60-S, day 4

SMILES: COC(=O)C1=C(C(=O)OC)C[C@H]2C(=O)C3=C(C(=O)[C@H]2C1)C1C2=C(C(=O)[C@H]4CC(C(=O)OC)=C(C(=O)OC)C[C@H]4C2=O)C3c2ccccc21 [TT4, (4aS*,7aR*,11aS*,14aR*)-Tetramethyl 1,4,4a,5,6,7,7a,8,11,11a,12,13,14,14a-tetradecahydro-5,7,12,14-tetraoxo-6,13-[1′,2′]benzenopentacene-2,3,9,10-tetracarboxylate]
- inhibitory effect on L1210 cell growth ([1]; 256 nM, 4 days): inactive
- inhibitory effect on L1210 cell viability [2]: inactive

- IC50 [2, 4]: 300 nM
SMILES: COC1=C(Br)C(=O)C2=C(C1=O)C1C3=C(C(=O)C=C(N(C)C)C3=O)C2c2ccccc21 (stereo not shown) [TT16, 2-Bromo-3-methoxy-6-(dimethylamino)-9,10-dihydro-9,10-[1′,2′]benzenoanthracene-1,4,5,8-tetraone]

- RFs, cell proliferation (IC50 of MDR cells / IC50 of WT HL-60-S) [3, 6]: 0.9-1.3
- RFs, cell proliferation (IC50 of MDR cells / IC50 of WT HL-60-S) [3, 7]: 0.9-1.0
- IC50 ([3]; day 2): 500 nM
- IC50 ([3]; day 4): 260 nM
- IC50 [2, 4]: 270 nM
- IC50 ([2]; read-out: IC50, inhibition of L1210 cell viability, day 2): 250 nM
- IC50 ([2]; read-out: IC50, inhibition of L1210 cell viability, day 4): 100 nM
SMILES: COC1=CC(=O)C2=C(C1=O)C1C3=C(C(=O)C=CC3=O)C2c2ccccc21 (stereo not shown) [TT2, 2-Methoxy-9,10-dihydro-9,10-[1′,2′]benzenoanthracene-1,4,5,8-tetraone]
- times DAU is more cytostatic/cytotoxic than TT2 [1]: 3.5-6 times
- % inhibition of L1210 cell proliferation ([1]; 256 nM TT2, day 2): 44%
- % inhibition of L1210 cell growth (cytostatic) ([1]; 256 nM, 4 days, 0.256 µM): 68%
- concentration giving almost total (maximal) inhibition of proliferation and viability ([1]; day 4): ≥ 640 nM
- IC50 ([1]; day 2): 300 nM
- IC50 ([1]; day 4): 150 nM
- RFs, tumor cell growth, viability and DNA synthesis together [3, 5]: 0.9-1.5

SMILES: COC(=O)C1=C(C(=O)OC)C[C@H]2[C@@H](C1)[C@@H](O)C1=C(C3C4=C(C1c1ccccc13)[C@@H](O)[C@H]1CC(C(=O)OC)=C(C(=O)OC)C[C@H]1[C@H]4O)[C@H]2O [TT12, (4aS*,5S*,7R*,12S*,14R*,7aR*,11aS*,14aR*)-Tetramethyl 1,4,4a,5,6,7,7a,8,11,11a,12,13,14,14a-tetradecahydro-5,7,12,14-tetrahydroxy-6,13-[1′,2′]benzenopentacene-2,3,9,10-tetracarboxylate]
- inhibitory effect on L1210 cell growth ([1]; 256 nM, 4 days): inactive
- inhibitory effect on L1210 cell viability [2]: inactive

SMILES: COc1cccc2c1C(=O)c1c(O)c3c(c(O)c1C2=O)C[C@@](O)(C(C)=O)C[C@@H]3O[C@H]1C[C@H](N)[C@H](O)[C@H](C)O1 [DAU, daunomycin, reference compound]
- times DAU is more cytostatic than TT2 ([1]; L1210, from IC50 values): about 6 times
- times DAU is more cytostatic/cytotoxic than TT2 ([1]; L1210, growth and viability, 4 days): 3.5-6 times
- inhibition at 0.041 µM ([1]; Mus musculus, L1210, 48 h): 42%
- IC50 ([1]; Mus musculus, L1210, 48 h): 50 nM
- inhibition at 0.041 µM ([1]; Mus musculus, L1210, 96 h): 77%
- IC50 ([1]; Mus musculus, L1210, 96 h): 25 nM
- concentration giving almost total (maximal) inhibition of proliferation and viability ([1]; day 4): 102 nM
- times less effective as cytostatic agent in MDR than in WT HL-60 cells [3, 5]: about 30 times
- RFs, cell proliferation (IC50 of MDR cells / IC50 of WT HL-60-S) [3, 6]: 22.9-35.7
- RFs, cell proliferation (IC50 of MDR cells / IC50 of WT HL-60-S) [3, 7]: 25.0-30.6
- IC50 ([3]; Homo sapiens, 48 h): 500 nM
- IC50 ([3]; Homo sapiens, 96 h): 275 nM
- times DAU is more cytotoxic than TT2 [2]: about 3.5 times
- cytotoxicity at 0.041 µM ([2]; Mus musculus, L1210, 48 h): 32%
- IC50 ([2]; Mus musculus, L1210, 48 h, read-out: IC50, inhibition of L1210 cell viability): 70 nM
- cytotoxicity at 0.041 µM ([2]; Mus musculus, L1210, 96 h): 65%
- IC50 ([2]; Mus musculus, L1210, 96 h, read-out: IC50 (concentration inhibiting by 50% the viability of L1210 leukemic cells)): 41 nM
- IC50 ([2]; Mus musculus, L1210, 96 h, read-out: IC50, inhibition of L1210 cell viability): 30 nM
